This note sets out measurements from ChEMBL document CHEMBL4350965 (J Med Chem, 2019).

Molecules are shown by their SMILES. Bounds are passed on as bounds.

For data set [1], the target named is T1, PI3K p110 beta/p85 alpha (Homo sapiens, UniProt P42338). Nature of the data set: Inhibition of N-terminal His6-tagged recombinant full length human p110beta/untagged recombinant full length human p85alpha expressed in baculovirus infected Sf21 insect cells at 1 uM using PIP2 as substrate measured after 80 mins by transcreener fluorescence polarization assay relative to control.

A short description of data set [2]: Stability in rat liver microsomes assessed as parent compound remaining at 1 uM measured after 30 mins in presence of NADPH generating system. A general note: Liver microsomes are a subcellular fraction often used to study metabolism.
The target of data set [3] is T1, PI3K p110 beta/p85 alpha. Nature of the data set: Inhibition of N-terminal His6-tagged recombinant full length human p110beta/untagged recombinant full length human p85alpha expressed in baculovirus infected Sf21 insect cells using PIP2 as substrate measured after 80 mins by transcreener fluorescence polarization assay. A general note: In fluorescence polarisation assays a small probe gives low polarisation when free and higher when bound to something large.

Data set [4] in a line: Inhibition of PI3Kgamma in […] RAW264.7 cells assessed as reduction in C5a-stimulated AKT phosphorylation at Ser473 residue preincubated for 30 mins followed by C5a-stimulation and measured after 5 mins. The class given is cell-based.
Data set [5] deals with T2, Phosphatidylinositol 4,5-bisphosphate 3-kinase catalytic subunit delta isoform (Homo sapiens, UniProt O00329).
T2 sequence (O00329 whole entry): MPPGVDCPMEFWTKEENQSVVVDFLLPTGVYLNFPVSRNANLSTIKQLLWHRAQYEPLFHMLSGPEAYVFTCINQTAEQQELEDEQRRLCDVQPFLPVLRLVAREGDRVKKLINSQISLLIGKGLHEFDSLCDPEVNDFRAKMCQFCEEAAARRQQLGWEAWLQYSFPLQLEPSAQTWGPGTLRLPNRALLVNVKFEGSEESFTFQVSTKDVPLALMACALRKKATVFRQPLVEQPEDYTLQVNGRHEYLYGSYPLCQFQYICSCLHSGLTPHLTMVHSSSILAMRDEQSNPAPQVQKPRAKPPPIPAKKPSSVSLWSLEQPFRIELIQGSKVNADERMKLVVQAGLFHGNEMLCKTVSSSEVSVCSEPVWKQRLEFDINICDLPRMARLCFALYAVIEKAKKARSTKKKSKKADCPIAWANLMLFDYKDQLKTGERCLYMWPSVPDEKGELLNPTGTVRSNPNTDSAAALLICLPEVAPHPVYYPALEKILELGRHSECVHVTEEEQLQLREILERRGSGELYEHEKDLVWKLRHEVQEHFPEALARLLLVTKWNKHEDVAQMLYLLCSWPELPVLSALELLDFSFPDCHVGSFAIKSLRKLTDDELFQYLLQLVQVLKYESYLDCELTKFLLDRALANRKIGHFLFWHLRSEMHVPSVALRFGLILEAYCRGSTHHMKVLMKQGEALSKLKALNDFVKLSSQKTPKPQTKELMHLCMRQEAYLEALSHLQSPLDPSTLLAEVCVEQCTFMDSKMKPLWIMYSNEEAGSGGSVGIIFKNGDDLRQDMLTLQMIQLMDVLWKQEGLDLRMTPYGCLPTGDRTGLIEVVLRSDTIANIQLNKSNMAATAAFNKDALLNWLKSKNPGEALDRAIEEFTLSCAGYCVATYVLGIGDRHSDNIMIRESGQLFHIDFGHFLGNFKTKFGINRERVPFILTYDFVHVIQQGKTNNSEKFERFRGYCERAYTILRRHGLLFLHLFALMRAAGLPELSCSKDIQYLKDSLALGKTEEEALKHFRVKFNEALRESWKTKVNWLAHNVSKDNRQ
Put plainly: Inhibition of PI3Kdelta in human Ramos cells assessed as reduction in antihuman IgM-stimulated AKT phosphorylation at Ser473 residue preincubated for 60 mins followed by antihuman IgM stimulation and measured after 15 mins. The class given is cell-based.

A short description of data set [6]: Inhibition of PI3Kdelta in rat whole blood assessed as reduction in anti-IgD-stimulated CD86 expression on B-cells preincubated for 60 mins followed by anti-IgD stimulation and measured after overnight incubation by flow cytometry. The class given is tissue-based.
The target of data set [7] is T2, Phosphatidylinositol 4,5-bisphosphate 3-kinase catalytic subunit delta isoform. Nature of the data set: Inhibition of PI3Kdelta in human whole blood assessed as reduction in anti-IgM-stimulated CD69 expression on B-cells preincubated for 60 mins followed by anti-IgM stimulation and measured after overnight incubation by flow cytometry. The class given is tissue-based. For orientation: In flow cytometry, cells or beads pass a laser one at a time.

For data set [8] the target is unchanged. Nature of the data set: Inhibition of PI3Kdelta in human whole blood assessed as reduction in fMLP-stimulated CD63 expression in basophils preincubated for 30 mins followed by fMLP stimulation. It counts as tissue-based.
In data set [9] the test system is Rattus norvegicus. Put plainly: Ex vivo inhibition of anti-IgD-induced B cell activation in Wistar rat assessed as CD86 expression at 1 mg/kg, po pretreated for 2 hrs followed by anti-IgD stimulation and measured after overnight incubation by flow cytometry relative to control. It counts as functional.
Data set [10] deals with Rattus norvegicus. Put plainly: Antiarthritic activity in po dosed type2 collagen-induced Wistar rat arthritis model assessed as reduction in hind paw volume administered twice daily for 7 days and measured daily during compound dosing by plethysmometry. It counts as functional. As to conditions: 168 h.
The nature of data set [11]: AUC in Beagle dog at 1 mg/kg, iv by LC-MS/MS analysis. It counts as ADME, organism-based, Canis lupus familiaris. As to conditions: in vivo.
Data set [12] is described as follows: Volume of distribution at steady state in Beagle dog at 1 mg/kg, iv by LC-MS/MS analysis. The class given is ADME, organism-based, Canis lupus familiaris. To be noted: in vivo, read-out: Vdss.
A short description of data set [13]: Half life in Beagle dog at 1 mg/kg, iv by LC-MS/MS analysis. It counts as ADME, organism-based, Canis lupus familiaris. To be noted: in vivo.
Data set [14] is described as follows: Clearance in Beagle dog at 1 mg/kg, iv by LC-MS/MS analysis. It counts as ADME, organism-based, Canis lupus familiaris. To be noted: in vivo.
Data set [15] concerns Rattus norvegicus. Nature of the data set: Inhibition of KC/GRO-induced neutrophil migration in Wistar rat air pouch model at 10 mg/kg, po pretreated for 0.5 hrs followed by KC/GRO-stimulation and measured after 4 hrs by flow cytometry relative to control. It counts as functional.
Data set [16] in a line: Cmax in Beagle dog at 5 mg/kg, po by LC-MS/MS analysis. The class given is ADME, organism-based, Canis lupus familiaris. More on the design: dose 5 mg/kg, route oral. As to conditions: in vivo.
Data set [17] in a line: AUC in Beagle dog at 5 mg/kg, po by LC-MS/MS analysis. The class given is ADME, organism-based, Canis lupus familiaris. As to conditions: in vivo.
Data set [18] in a line: Oral bioavailability in Sprague-Dawley rat at 10 mg/kg by LC-MS/MS analysis. The class given is ADME, organism-based. As to conditions: in vivo.
Data set [19] can be described thus: Cmax in Sprague-Dawley rat at 10 mg/kg, po by LC-MS/MS analysis. It counts as ADME, organism-based. More on the design: dose 10 mg/kg, route oral. To be noted: in vivo.
A short description of data set [20]: AUC in Sprague-Dawley rat at 10 mg/kg, po by LC-MS/MS analysis. The class given is ADME, organism-based. As to conditions: in vivo.
Data set [21] can be described thus: Clearance in Sprague-Dawley rat at 2.5 mg/kg, iv by LC-MS/MS analysis. It counts as ADME, organism-based. To be noted: in vivo.
Data set [22] in a line: Half life in Sprague-Dawley rat at 2.5 mg/kg, iv by LC-MS/MS analysis. It counts as ADME, organism-based. As to conditions: in vivo.
Data set [23] is described as follows: AUC in Sprague-Dawley rat at 2.5 mg/kg, iv by LC-MS/MS analysis. The class given is ADME, organism-based. To be noted: in vivo.
Data set [24] in a line: Oral bioavailability in Beagle dog at 5 mg/kg by LC-MS/MS analysis. The class given is ADME, organism-based, Canis lupus familiaris. To be noted: in vivo.
For data set [25], the target named is PI3-kinase p110-delta/p85-alpha (Homo sapiens, UniProt O00329). Put plainly: biochemical.
Description: Inhibition of N-terminal His6-tagged recombinant full length human p110delta/untagged recombinant full length human p85alpha expressed in baculovirus infected Sf21 insect cells using PIP2 as substrate measured after 80 mins by transcreener fluorescence polarization assay
A short description of data set [26]: Stability in human liver microsomes assessed as parent compound remaining at 1 uM measured after 30 mins in presence of NADPH generating system.

T1 sequence (P27986 whole entry): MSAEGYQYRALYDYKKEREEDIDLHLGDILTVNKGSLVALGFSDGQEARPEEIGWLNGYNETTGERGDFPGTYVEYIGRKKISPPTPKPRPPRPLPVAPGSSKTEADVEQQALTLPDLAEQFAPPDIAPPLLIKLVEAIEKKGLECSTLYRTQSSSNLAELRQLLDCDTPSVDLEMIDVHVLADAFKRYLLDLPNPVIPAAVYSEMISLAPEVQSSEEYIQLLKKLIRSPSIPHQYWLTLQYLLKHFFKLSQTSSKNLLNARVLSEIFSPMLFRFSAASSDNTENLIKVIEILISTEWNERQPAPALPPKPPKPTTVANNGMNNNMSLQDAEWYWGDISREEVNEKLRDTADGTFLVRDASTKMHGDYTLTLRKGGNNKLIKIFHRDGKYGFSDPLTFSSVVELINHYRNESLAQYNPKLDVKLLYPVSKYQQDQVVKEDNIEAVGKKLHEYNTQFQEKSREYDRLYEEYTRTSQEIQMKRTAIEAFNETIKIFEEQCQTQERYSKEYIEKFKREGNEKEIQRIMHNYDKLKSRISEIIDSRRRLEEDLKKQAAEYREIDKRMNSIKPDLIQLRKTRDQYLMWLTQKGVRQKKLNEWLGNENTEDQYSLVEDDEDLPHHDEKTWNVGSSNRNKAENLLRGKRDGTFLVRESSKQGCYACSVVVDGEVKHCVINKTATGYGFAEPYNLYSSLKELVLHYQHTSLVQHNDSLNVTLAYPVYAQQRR
T1 sequence (P42338 whole entry): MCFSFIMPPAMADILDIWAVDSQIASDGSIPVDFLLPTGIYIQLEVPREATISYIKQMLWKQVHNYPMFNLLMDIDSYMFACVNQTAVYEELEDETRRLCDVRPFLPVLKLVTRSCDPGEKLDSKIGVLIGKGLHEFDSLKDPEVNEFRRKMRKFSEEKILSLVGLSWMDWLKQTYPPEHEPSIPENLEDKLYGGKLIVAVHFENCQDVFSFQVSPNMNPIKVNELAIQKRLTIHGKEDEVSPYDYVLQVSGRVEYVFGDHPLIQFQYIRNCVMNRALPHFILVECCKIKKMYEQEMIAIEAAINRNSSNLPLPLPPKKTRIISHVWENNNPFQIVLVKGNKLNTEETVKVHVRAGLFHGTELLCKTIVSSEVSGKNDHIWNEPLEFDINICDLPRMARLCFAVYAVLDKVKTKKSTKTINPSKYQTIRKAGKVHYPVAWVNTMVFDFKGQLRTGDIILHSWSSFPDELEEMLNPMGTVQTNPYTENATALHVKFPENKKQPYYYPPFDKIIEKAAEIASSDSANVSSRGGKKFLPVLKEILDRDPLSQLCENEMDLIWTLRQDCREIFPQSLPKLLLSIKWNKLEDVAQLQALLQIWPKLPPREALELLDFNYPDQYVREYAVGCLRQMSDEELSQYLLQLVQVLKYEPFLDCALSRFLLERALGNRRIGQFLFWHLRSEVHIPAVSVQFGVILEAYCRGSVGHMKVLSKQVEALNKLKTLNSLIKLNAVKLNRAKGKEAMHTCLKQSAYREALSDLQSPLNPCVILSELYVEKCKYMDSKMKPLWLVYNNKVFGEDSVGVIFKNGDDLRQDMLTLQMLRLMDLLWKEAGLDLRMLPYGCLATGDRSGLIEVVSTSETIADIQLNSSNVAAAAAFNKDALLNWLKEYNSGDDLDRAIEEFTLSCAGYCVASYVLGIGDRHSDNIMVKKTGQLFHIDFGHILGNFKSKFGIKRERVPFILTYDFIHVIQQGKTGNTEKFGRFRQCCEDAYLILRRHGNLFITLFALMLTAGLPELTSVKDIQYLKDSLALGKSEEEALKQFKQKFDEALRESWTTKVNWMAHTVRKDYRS
PI3-kinase p110-delta/p85-alpha, sequence (P27986 whole entry, one chain of several): as the sequence (P27986 whole entry) above

With `O=c1c2c(F)ccn2nc([C@@H]2CCCN2c2ncnc3[nH]cnc23)n1-c1ccccc1`, the inhibition – broadly, the drop in the measured response relative to a control, in per cent – at 1 µM at PI3K p110 beta/p85 alpha [1] turned out to be 52.9%. The share remaining – broadly, the share of the starting amount still present when the sample was taken – at 0.5 h, 1 µM in [2] was found to be 51.8%.
In the same order, the values of `O=c1c2cccn2nc([C@@H]2CCCN2c2ncnc3[nH]cnc23)n1-c1ccccc1` are 17.4% and 44.3%.
With `Nc1ncc(C(=O)C(F)(F)F)c(N2CC[C@H]2c2nn3ccc(Cl)c3c(=O)n2-c2ccccc2)n1`, the IC50 – broadly, the concentration at which inhibition is half-maximal – at PI3K p110 beta/p85 alpha [3] was over 1000 nM.
For `N#Cc1cnc(N)nc1N1CCC[C@H]1c1nn2ccc(Cl)c2c(=O)n1-c1ccccc1`, the IC50 in data set [4] came to 22 nM; in data set [5], 3 nM. In data set [2], the fraction remaining at 0.5 h, 1 µM amounted to 23.5%.
For the compound `C[C@H](Nc1ncnc2nc[nH]c12)c1cc2cccc(Cl)c2c(=O)n1-c1ccccc1` [DUVELISIB], the half-inhibitory concentration (IC50) was 25 nM in data set [4] and 2 nM in data set [6].
As to `CC(=O)c1cnc(N)nc1N1CC[C@H]1c1nn2ccc(Cl)c2c(=O)n1-c1ccccc1`, the IC50 on PI3K p110 beta/p85 alpha [3] turned out to be 590 nM; in data set [7], 63 nM; in data set [6] it was 44 nM; in [8], 337 nM; in data set [25], 5 nM. The inhibition in vivo – broadly, the share of the control response that was lost under treatment – at 1 mg/kg in the data set on Rattus norvegicus [9] is 88.3%. Moreover, in the data set on Rattus norvegicus [10], the ED50 (in general, the midpoint of the dose-response relation) worked out at 0.25 mg/kg. Moreover, the AUC (commonly the area under the concentration-time curve, a measure of exposure) in data set [11] worked out at 3260 ng·h/mL; in data set [17], 13100 ng·h/mL; in data set [20], 14300 ng·h/mL; in [23], 3270 ng·h/mL. Moreover, the Vd in data set [12] was 1.7 L/kg. The half-life (as a rule, the time in which the quantity being followed falls by half) in data set [13] was 6.3 h; in [22], 1.5 h. The clearance (as a rule, the rate of elimination divided by the concentration) in data set [14] worked out at 5.4 mL/min/kg; in data set [21] it was 12.7 mL/min/kg. For the same compound, in the data set on Rattus norvegicus [15], the inhibition in vivo at 10 mg/kg was 87.9%. The Cmax (usually the highest concentration seen after dosing) in data set [16] was found to be 2530 ng/mL; in data set [19], 2730 ng/mL. Besides, the bioavailability in data set [18] came out at 108%; in data set [24], 82.4%.
Consider `CC(=O)c1c[nH]c2ncnc(N3CCC[C@H]3c3nn4ccc(Cl)c4c(=O)n3-c3ccccc3)c12`, for which the values for the fraction remaining at 0.5 h, 1 µM in data set [2] and in data set [26] were 41.4% and 17.9%, respectively.
Consider `Nc1ncc(Cl)c(N2CC[C@H]2c2nn3ccc(Cl)c3c(=O)n2-c2ccccc2)n1`, for which, on PI3K p110 beta/p85 alpha [1], the inhibition at 1 µM was 22.9%.
Consider `C#Cc1cnc(N)nc1N1CC[C@H]1c1nn2ccc(Cl)c2c(=O)n1-c1ccccc1`, for which the inhibition at 1 µM on PI3K p110 beta/p85 alpha [1] was 22.7%.
For `O=c1c2c(Cl)ccn2nc([C@@H]2CCCN2c2ncnc3[nH]cnc23)n1-c1cccc(F)c1`, the inhibition at 1 µM at PI3K p110 beta/p85 alpha [1] came to 54.8%. For the same compound, in data set [4], the half-inhibitory concentration (IC50) stood at 8 nM. Moreover, the fraction remaining at 0.5 h, 1 µM in data set [2] was 34.6%; in data set [26], 64.3%.
As for `O=c1c2c(Cl)ccn2nc([C@@H]2CCCN2c2ncnc3[nH]cnc23)n1-c1ccccc1`, the figures for the amount remaining at 0.5 h, 1 µM in data set [2] and in data set [26] were 38.8% and 72.6%, respectively.
